Consider two compounds from patent publication US20040142882A1, “Use of glycyrrhizin and its derivatives as RANTES inducers” (priority 2002, published 2004).

SMILES strings stand for the structures.

Assay [1] concerns peripheral mononuclear cells. The assay is described as follows: RANTES induction in peripheral mononuclear cells from healthy individuals (Quantikine immunoassay of culture supernatant). Format: cell-based, human. The protocol: Peripheral blood was collected from healthy individuals and peripheral mononuclear cells were isolated with Ficoll-Hypaque. RPMI1640 medium containing 10% FCS and antibiotics (penicillin and streptomycin) was used for culturing. After stimulating 1×10^6 cells/ml of peripheral mononuclear cells with 100 μg/ml of sodium olean-3β-hydroxy-11-oxo-12-ene-30-ate, disodium olean-9(11),12-diene-3β,30-diol-3β,30-O-dihemiphthalate, disodium olean-11,13 (18)-diene-3β,30-diol-3β,30-O-dihemiphthalate, disodium olean-3β-hydroxy-11,13(18)-diene-30-ate-3β-O-hemiphthalate, disodium olean-3β-hydroxy-11-oxo-12-ene-30-ate-3β-O-hemiphthalate, or monoammonium glycyrrhizinate for 24 hours, the amount of RANTES in the culture supernatant was measured with a Human RANTES/CCL5 Quantikine Immunoassay Kit (R&D Systems). Furthermore, the control in the drawing indicates the amount of RANTES in culture supernatant when peripheral mononuclear cells were treated with medium only.
Peripheral blood was collected from healthy subjects and peripheral mononuclear cells were isolated with Ficoll-Hypaque. 1×10^6 cells/ml of peripheral mononuclear cells were stimulated with 100 μg/ml of monoammonium glycyrrhizinate (monoammonium glycyrrhizinate will hereinafter be referred to as glycyrrhizin). Taking the time at which glycyrrhizin was added to be 0 hours, the amount of RANTES present in the culture supernatant was measured with the Human RANTES/CCL5 Quantikine Immunoassay Kit (R&D Systems) 12, 24, 48 and 72 hours later. Furthermore, the control in the drawing indicates the amount of RANTES in culture supernatant of peripheral mononuclear cells not treated with glycyrrhizin.
Peripheral blood was collected from healthy subjects and peripheral mononuclear cells were isolated with Ficoll-Hypaque. 1×10^6 cells/ml of peripheral mononuclear cells were stimulated for 24 hours with 0.1-100 μg/ml of glycyrrhizin. The amount of RANTES present in the culture supernatant was measured with the Human RANTES/CCL5 Quantikine Immunoassay Kit (R&D Systems).

Assay [2] has as its system HIV. The following applies: reported in recent years; cited from earlier work.
Assay [3] concerns peripheral mononuclear cells from AIDS patients. Nature of the assay: RANTES induction in peripheral mononuclear cells from AIDS patients. The settings on record: 100 μg/ml, 24 hours, cells from 3 AIDS patients, FIG. 4. Format: cell-based, human. The protocol:
Peripheral blood was collected from 3 AIDS patients (CD4 count: 215-418 cells/μl, viral load: 80,000-370,000 copies/ml) and peripheral mononuclear cells were isolated with Ficoll-Hypaque. 1×10^6 cells/ml of peripheral mononuclear cells were stimulated for 24 hours with 100 μg/ml of glycyrrhizin. The amount of RANTES present in the culture supernatant was measured with the Human RANTES/CCL5 Quantikine Immunoassay Kit (R&D Systems). Furthermore, the control in the drawing indicates the amount of RANTES in culture supernatant of peripheral mononuclear cells not treated with glycyrrhizin.

The subject of assay [4] is mononuclear cells originated from mouse spleen. Nature of the assay: RANTES induction in mononuclear cells originated from mouse spleen. Type of assay: cell-based. An excerpt: The above results were able to be confirmed not only in humans, but also in experiments using mononuclear cells originated from mouse spleen.
For assay [5], the system named is septicemia induced by cecal ligation and puncture (CLP). The assay is described as follows: Septicemia model (cecal ligation and puncture) in IFN-γ knockout mice, survival. Type of assay: in vivo. The settings on record: 7 days. The protocol:
Glycyrrhizin was administered intraperitoneally to IFN-γ knockout mice at 20 mg/kg, and septicemia was induced by cecal ligation and puncture (CLP) 2 hours later.
Glycyrrhizin was administered intraperitoneally to IFN-γ knockout mice at 20 mg/kg, and septicemia was induced by CLP 2 hours later. 10 μg/ml of anti-RANTES monoclonal antibody were administered subcutaneously 2 hours before, 12 hours after and 24 hours after administration of glycyrrhizin, while an equal amount of Ig was administered subcutaneously to a control group.

A further assay deals with IL-12Rβ2 mRNA. Nature of the assay: Th1 cell induction: IL-12Rβ2 mRNA expression by RT-PCR in peripheral mononuclear cells. Type of assay: cell-based, human. The settings on record: 7 days, FIG. 5. The protocol:
Peripheral blood was collected from healthy subjects and peripheral mononuclear cells were isolated with Ficoll-Hypaque. 1×10^6 cells/ml of peripheral mononuclear cells were cultured for 7 days in medium containing IL-2 (10 U/ml) and anti-IFN-γ monoclonal antibody (10 μg/ml) in the presence of 100 μg/ml of glycyrrhizin, or glycyrrhizin and anti-RANTES monoclonal antibody (10 μg/ml). After culturing, RNA was extracted from the cells, and the expression of IL-12Rβ2 mRNA, a marker for Th1 cells, was measured by RT-PCR. […] In other words, IFN-γ is not involved in the reaction used in this experiment. Furthermore, the control in the drawing indicates the degree of expression of IL-12Rβ2 mRNA in mononuclear cells when cultured without the addition of glycyrrhizin.

Assay [6] has as its system methicillin-resistant Staphylococcus aureus (MRSA). The assay is described as follows: MRSA infection in SCIDbgMN mice inoculated with spleen mononuclear cells of IFN-γ knockout mice, survival. Format: in vivo. The settings on record: 10 days. The protocol:
Spleen mononuclear cells originated from IFN-γ knockout mice (5×10^6 cells/ml) were inoculated into SCIDbgMN mice (SCID-beige mice deficient in macrophage and neutrophil functions). A 20 mg/kg dose of glycyrrhizin was administered intraperitoneally immediately after inoculation. 2 hours later, the animals were infected through the tail vein with methicillin-resistant Staphylococcus aureus (MRSA) at a level of 5 LD50. Furthermore, a control group was infected with an equal amount of MRSA following administration of physiological saline.
Spleen mononuclear cells originated from IFN-γ knockout mice (5×10^6 cells/ml) were inoculated into SCIDbgMN mice. A 20 mg/kg dose of glycyrrhizin was administered intraperitoneally immediately after inoculation. 2 hours later, the animals were infected through the tail vein with methicillin-resistant Staphylococcus aureus (MRSA) at a level of 5 LD50. 10 μg/ml of anti-RANTES monoclonal antibody was administered subcutaneously 2 hours before, 12 hours after and 24 hours after administration of glycyrrhizin, while an equal amount of Ig was administered subcutaneously to a control group.

Assay [7] concerns HIV. The settings on record: 150 to 225 mg (6 to 9 tablets) per day, asymptomatic carriers (AC); cited from earlier work.

In the case of `CC1(COC(=O)c2ccccc2C(=O)[O-])CCC2(C)CCC3(C)C(=C2C1)C=CC1C2(C)CCC(OC(=O)c4ccccc4C(=O)[O-])C(C)(C)C2CCC13C.[Na+].[Na+]` (stereo not drawn) [MUN-014, disodium olean-11,13(18)-diene-3β,30-diol-3β,30-O-dihemiphthalate], the “amount of RANTES induced compared with monoammonium glycyrrhizinate” value in assay [1] (100 μg/ml compound, 24 hours, FIG. 1) was “nearly equal amount”.

As for `CC1(C)[C@@H](O[C@H]2O[C@H](C(=O)O)[C@@H](O)[C@H](O)[C@H]2O[C@@H]2O[C@H](C(=O)O)[C@@H](O)[C@H](O)[C@H]2O)CC[C@]2(C)[C@H]3C(=O)C=C4[C@@H]5C[C@@](C)(C(=O)O)CC[C@]5(C)CC[C@@]4(C)[C@]3(C)CC[C@@H]12.N` [GR, monoammonium glycyrrhizinate], the “intracellular growth of HIV” value in the assay on HIV [2] is on record as “inhibits the intracellular growth of HIV”. Also, the RANTES induction entry in assay [3] is reported as “RANTES was induced”. In addition, the “RANTES induction confirmed in mouse cells” value in assay [4] is listed as “confirmed”. Further, in assay [1] (100 μg/ml compound, 24 hours, 1×10^6 cells/ml, FIG. 1), the “amount of RANTES in the culture supernatant” value turned out to be 3 ng/mL. Also, the “production of RANTES over time” value in assay [1] (100 μg/ml, 12, 24, 48 and 72 hours, FIG. 2) is on record as “increased with the passage of culturing time”. Besides, the “RANTES induction versus concentration” value in assay [1] (0.1-100 μg/ml tested, 24 hours, dose dependent within 1-100 μg/ml, FIG. 3) is listed as “dose dependent manner”. For the same compound, the “mortality rate after septicemic infection with anti-RANTES monoclonal antibody” value in assay [5] (20 mg/kg i.p. plus anti-RANTES monoclonal antibody subcutaneously, FIG. 7) was “increased to the same level as the control group”. Moreover, in assay [5] (20 mg/kg intraperitoneally 2 hours before CLP, FIG. 6), the “survival rate after septicemic infection” value stood at 80%. In addition, the “expression of IL-12Rβ2 mRNA (Th1 marker) with anti-RANTES monoclonal antibody” value in the assay with IL-12Rβ2 mRNA (100 μg/ml glycyrrhizin plus anti-RANTES monoclonal antibody 10 μg/ml) is “no longer demonstrated its expression”. Also, in the assay with IL-12Rβ2 mRNA (100 μg/ml, with IL-2 and anti-IFN-γ monoclonal antibody), the “expression of IL-12Rβ2 mRNA (Th1 marker)” value was “increase in the expression of IL-12Rβ2 mRNA”. In addition, the “mortality rate after MRSA infection with anti-RANTES monoclonal antibody” value in assay [6] (20 mg/kg i.p. plus anti-RANTES monoclonal antibody subcutaneously, FIG. 9) is listed as “increased to the same level as the control group”. Also, the “survival rate after MRSA infection” value in assay [6] (20 mg/kg intraperitoneally 2 hours before MRSA 5 LD50 via tail vein, FIG. 8) is reported as 75%. In addition, the “survival without the onset of AIDS” value in the assay on HIV [7] is listed as no less than 10 years.
